Results from a melting point compilation (Tetko et al.; mined from patent text by program, amines drawn as free bases though some values may be those of a salt).

Row | SMILES | melting point
1 | C#CCOc1cccc(CCCCCCCCCCCCCCC)c1 | 26 to 27 °C
2 | CCC12CCC3C4CCC(=O)C=C4CCC3C1C=CC2=O (configuration not stated) | 157 °C
3 | COCOCc1nc(-c2ccccc2)oc1CO | 70 to 71 °C
4 | CN1CCN(C2=Nc3ccccc3Sc3nccn32)CC1 | 145 to 147 °C
5 | Nc1nc(-c2cc(Cl)ccc2Cl)nc(N2CCSCC2)n1 | 239 to 241 °C
6 | CC(=O)OCC1OC(n2cnc3c(N)nc(F)nc32)C(OC(C)=O)C1OC(C)=O (configuration not stated) | 195 to 196 °C
7 | COCc1cccc(CC#N)c1[N+](=O)[O-] | 34 to 36 °C
8 | N#CCN1C(=O)N(c2ccc(C#N)c(C(F)(F)F)c2)C(=O)C1(CF)CF | 125 °C
9 | COC(=O)NC(=S)Nc1ccon1 | 165 to 167 °C
10 | CN1CCCCNC1=C[N+](=O)[O-] | 88 to 89 °C
11 | O=C(O)c1ccc(Br)c(S)c1 | 315 to 317 °C
12 | COC1=CCC2=C(CC[C@H]3[C@@H]4CCC(=O)[C@@]4(C)CC[C@]23C)C1 | 155 to 158 °C
13 | CCCCc1nc2c(N)nc3c(c2n1CC(C)(C)OCCS(C)(=O)=O)CCCC3 | 146 to 148 °C
14 | CN(C)S(=O)(=O)c1cc2c(c(Cl)c1Cl)OC(CO)C2 (configuration not stated) | 133 to 134 °C
15 | O=c1nc(N(CCO)c2ccccc2)sc2ncccc12 | 168 to 169 °C
16 | Cc1cccc(C)c1NC(=O)CC1c2ccccc2Oc2ccccc21 | 249 to 250 °C
17 | Cn1ncnc1COc1nc2c(-c3ccccc3)nncn2c1-c1ccccc1 | 179 °C
18 | CCOc1csc(NC(C)=O)c1C#N | 242 to 243 °C
19 | CCCCCNC1=CC(=O)c2c(OC)ccc(OC)c2C1=O | 102 to 103 °C
20 | CCc1nn(CCNC(=O)OC(C)(C)C)c(CN)c1Oc1cc(Cl)cc(Cl)c1 | 112 to 114 °C

Row | SMILES | melting point
21 | ClCc1ccc(Cl)nc1Cl | 115 to 130 °C
22 | CC1c2ccccc2Nc2nccn21 (configuration not stated) | 171 to 172 °C
23 | O=[N+]([O-])c1cc(CBr)n(CCBr)n1 | 95 to 97 °C
24 | CC(C(=O)N(C)C)n1cc(Cl)c(-c2ccccc2)n1 (configuration not stated) | 73.5 to 75 °C
25 | Oc1ccc(CN2CC=CCC2)cc1O | > 300 °C
26 | Cc1ccc2c(c1)c(C)c(C(=O)OCc1ccccc1)n2CCC#N | 71 °C
27 | ON=C(c1ccccc1)c1ccc(OCCCOc2ccc(C(=NO)c3ccccc3)cc2)cc1 | 205 to 208 °C
28 | CCOCOC1(C(=O)COC(C)=O)C(C)CC2C3CC(C)C4=CC(=O)C=CC4(C)C3C(O)CC21C (configuration not stated) | 137 to 139 °C
29 | C=CCN(CC=C)c1nc(NC(=O)c2ccccc2)n2oc(=O)nc2n1 | 174 to 175 °C
30 | Cn1cc(C=O)c2c3sc4ccccc4c3ccc21 | 224 °C
31 | Nc1ccc(OC2CCN(c3ccncc3)CC2)cc1 | 209 to 210 °C
32 | CCOC(=O)c1cnc(OCC)c2c(C)n[nH]c12 | 200 °C
33 | CC(C)(C)OC(=O)NCCNC(=O)c1ncccc1N | 103 to 105 °C
34 | O=C(NCCN1CCN(C(c2ccccc2)c2ccncc2)CC1)C1CSC(c2cccnc2)N1 (configuration not stated) | 160 to 162 °C
35 | Cc1ccc(N2CCNCC2)c2c1CC[C@@H](NC(=O)c1ccc(N3CCOCC3)cc1)C2 | 207 to 210 °C
36 | CCC(C(C)=CC(CNC(=O)c1nccnc1N)=NO)[N+](=O)[O-] (configuration not stated) | 139 to 141 °C
37 | O=c1ccn(-c2ccc(Cl)cc2)nc1-c1ccnn1-c1ccccc1 | 219 to 220 °C
38 | Cc1ccc(S(=O)(=O)C#CBr)cc1 | 99 to 101 °C
39 | Nc1ccc(C(Cc2ccccc2)C(=O)O)cc1 (configuration not stated) | 196 to 198 °C
40 | CC(=O)COC1CC2C3CCC4=CC(=O)CCC4(C)C3(F)C(O)CC2(C)C1(O)C(=O)CO (configuration not stated) | 203 to 208 °C

Row | SMILES | melting point
41 | Cn1c(=O)oc2cc([N+](=O)[O-])ccc21 | 183 to 185 °C
42 | CCCCONc1ncn(-c2c(C)cccc2C)c(=O)n1 | 144 to 145 °C
43 | Brc1cccc(Sc2ccc3ccccc3c2)c1 | 68 to 70 °C
44 | CCCCCCCCCCCCCCOc1ccc(CC(=O)Nc2cccc(C(=O)OCC)c2)cc1 | 91 to 94 °C
45 | CSC(=S)OCc1cn(-c2ccc(N3CCOCC3)c(F)c2)nn1 | 118 °C
46 | CC(=O)NCC1CCN(CCOc2ccccc2)CC1 | 79 to 80 °C
47 | CC(C)CCCC(C)C1CCC2C3CC=C4CC(OCCCCCCO)CCC4(C)C3CCC12C (configuration not stated) | 75.9 to 81 °C
48 | N#Cc1cnc2cc(-c3ccc(CO)cc3)sc2c1Nc1ccc(Oc2ccccc2)cc1 | 225 to 228 °C
49 | CC(C)(C)c1cc(C(=S)SC(C)(C)c2ccccc2)cc(C(C)(C)C)c1O | 100 to 104 °C
50 | CCn1c(-c2ccc(N)cc2)n[nH]c1=S | 240 to 250 °C
51 | COc1ccc(C(=O)c2c(C)n(C)c(=O)n2C)cc1 | 109 to 111 °C
52 | COc1cc(OC)nc(NC(=O)NS(=O)(=O)c2ccccc2C=O)n1 | 180 °C
53 | COC(=O)c1c(C)noc1C(=O)NC(C)C | 64 to 66 °C
54 | Cc1ccc2ncc(CSc3ccc(N)cc3)n2c1 | 128 to 129 °C
55 | Clc1ccc(NC2CCCCC2)nn1 | 161 to 163 °C
56 | S=C1C[C@@H](SCc2ccccc2)CN1 | 86 to 88 °C
57 | C=CN(Cc1ccccc1)C(=O)C(F)(F)C(F)(F)C(F)(F)C(F)(F)C(F)(F)C(F)F | 53 to 57 °C
58 | CC(C#CC1CCCC1)N(O)C(N)=O (configuration not stated) | 140 to 141 °C
59 | O=C1CCC(c2ccc(F)cc2)CC1 | 104 to 106 °C

Now from value to compound:

Row | melting point | SMILES
60 | 317 to 319 °C | NNC(=S)c1cc(F)c2ncc(C(=O)NCc3ccc(Cl)cc3)c(O)c2c1
61 | 247 to 249 °C | Fc1cc2c(Nc3ccc(F)c(C(F)(F)F)c3)ncnc2cn1
62 | 99 to 100 °C | COc1cccc(N(C)C(=S)Oc2ccc3c(c2)CCCC3)n1
63 | 104 to 107 °C | N[C@@H]1C[C@H]2c3ccccc3-c3cccc(c32)NC1=O (relative stereo)
64 | 136 to 139 °C | COc1ccc(N2CCN(c3c(C)c(C)c4c(c3C)C(c3ccc(C)cc3)C(C)(C)O4)CC2)cc1OC (configuration not stated)
65 | 110 to 115 °C | CCN1CCCC1CNC(=O)c1cc(S(N)(=O)=O)c(OC)c2c1OCCO2 (configuration not stated)
66 | 109 to 112 °C | CN(C)C=NS(=O)(=O)c1ccc(F)c(F)c1
67 | 139 to 146 °C | COc1ccc2c(c1)c(CCOC(=O)c1cc(O)c3c(c1)C(=O)c1cccc(O)c1C3=O)c(C)n2C(=O)c1ccc(Cl)cc1
68 | 129 to 130 °C | Cn1cc(C(=O)c2ccc(Cl)cc2)cc1C(=O)CN1CCCCC1
69 | 238 °C | CC(=Cc1ccc2ccccc2c1)c1ccc(C(=O)O)cc1
70 | 114 to 115 °C | CC1(c2cc(-c3ccc(F)cc3F)cc(C(=O)Nc3ccc(S(=O)(=O)C(F)(F)F)cc3Cl)c2O)CCCCC1
71 | 163 to 165 °C | CC(C)(C)C(=O)Oc1c(N2CCCC2)c(=O)n(-c2ccccc2)c2ncccc12
72 | 153 to 155 °C | COC(=O)c1ccc(Cc2c[nH]c3ccc([N+](=O)[O-])cc23)c(OC)c1
73 | 161 to 164 °C | CCC1=NC(NC(=O)Nc2cccc(C)c2)C(=O)N(CC(=O)C2CCCCC2)c2c(C)cccc21 (configuration not stated)
74 | 156 to 158 °C | O=C(O)c1ccccc1-c1ccc2c(C(=O)NCC34CC5CC(CC(C5)C3)C4)c(Cl)ccc2n1
75 | 110 °C | COc1ccccc1-c1ccc2ccc(NC(=O)c3cccc(Br)c3)nc2n1
76 | 170 to 174 °C | COc1cc(C(=O)N2Cc3ccc(C(=O)NCc4ccccc4)n3Cc3ccccc32)ccc1-c1ccccc1C
77 | 223 to 224 °C | CCn1ncc2c(NCC3CCCCC3)c3cc(O)ccc3nc21
78 | 112 °C | COc1ccc(S(=O)(=O)c2ccccn2)cc1
79 | 146 to 147 °C | Cc1c(C)c2c(c(C)c1NC(=O)CC(C)(C)C)C(c1ccccc1)CO2 (configuration not stated)
80 | 99 to 100 °C | COC(=O)CN(CC(=O)OC)S(=O)(=O)c1ccc(C)cc1
81 | 199 to 201 °C | CN1C2CCCC1CC(NC(=O)c1cc(Cl)cc3nc(-c4ccccc4)oc13)C2 (configuration not stated)

Row | melting point | SMILES
82 | 196 to 198 °C | CC(=O)NC1CCN(Cc2ccc(CCn3cnc4cc(-c5ccc(Cl)cc5)sc4c3=O)cc2)C1 (configuration not stated)
83 | 191 to 194 °C | C=CCOC(=O)OCN1C(=O)C(c2cn(C)c3ccccc23)=C(c2cn(C)c3cc([N+](=O)[O-])ccc23)C1=O
84 | 83 to 84.5 °C | O=[N+]([O-])c1cc(Cl)c(OCc2ccccc2-c2ccccc2)c(Cl)c1
85 | 154 to 157 °C | COC(=O)CCc1cc2cc(Cl)ccc2n1S(=O)(=O)c1ccc(NC(C)=O)cc1
86 | 158 to 160 °C | CC(C)(Cc1cc2c(OCc3ccc4ccccc4n3)cccc2n1Cc1ccc(Cl)cc1)C(=O)O
87 | 134 °C | COc1ccc(N(c2ccc(-c3ccc(N(c4ccc(OC)cc4)c4cccc(C(F)(F)F)c4)cc3)cc2)c2cccc(C(F)(F)F)c2)cc1
88 | > 260 °C | O=C1c2ccccc2C(=O)c2sc(-c3ccccc3F)nc21
89 | 235 to 237 °C | CN=C(C1=C(O)C(=O)c2ccccc2C1=O)c1ccccc1
90 | 126 to 128 °C | Clc1ccc(-n2ccc(OCCOCCN3CCCCC3)n2)cc1Cl
91 | 112 to 113 °C | CN1C(=O)SC(=C(CO)c2cccc3ccccc23)C1=O
92 | 91 to 92 °C | c1cc(CN2CCCC2)cc(OCCCNc2nc3ccccc3s2)c1
93 | 178 °C | COc1ccc(CCN2CCC(NC(=O)c3ccccc3)CC2)cc1
94 | 126 to 127 °C | Fc1ccc(N2CCN(Cc3ccc4c(c3)NCCN4)CC2)cc1
95 | 220 to 222 °C | Cc1cccc(C)c1NC(=O)NC1(c2cccs2)CCCCC1
96 | 203 to 206 °C | CCOC(=O)c1cc(-n2c(=O)c3c(n(C)c2=O)CSC3)ccc1Cl
97 | 202 to 205 °C | CCOCc1nc2c(N)nc3cc(OCc4ccccc4)ccc3c2n1CC(C)(C)NC(C)=O
98 | 172 to 174 °C | Cc1c(NC(=O)CC(C)(C)C)c(C)c2c(c1-c1ccsc1)OCC2c1ccc(C(C)C)cc1 (configuration not stated)
99 | 176 to 177 °C | CCCc1nc2c(N)nc3ccc(-c4cccc(CO)c4)cc3c2s1
100 | 167 °C | COC(=O)C1=C(C)NC(N)=C(C(=O)OC(C)C)C1c1cccc([N+](=O)[O-])c1 (configuration not stated)
101 | 166 to 168 °C | O=C1COc2cccc3nc4c(c(c23)N1Cc1ccccc1)CCCC4
102 | 148 to 149 °C | CC(C)(C)c1cc(CCCOc2ccccc2NC(=O)NC2CCN(Cc3ccccc3)CC2)cc(C(C)(C)C)c1O
